The values below come from patent US20170042908A1, “METHOD FOR TREATING GEOGRAPHIC ATROPHY ASSOCIATED WITH AGE-RELATED MACULAR DEGENERATION” (NATIONAL UNIVERSITY CORPORATION KAGAWA UNIVERSITY, priority 2014, published 2017).

Test [1] deals with geographic atrophy (GA). Put plainly: Clinical study: GA area by fundus autofluorescence imaging (RegionFinder). Type of test: in vivo, human. The method, then:
(§1) A prospective, randomized, placebo-controlled study was performed for forty-eight eyes with GA which had not a recurrence of exudative AND for at least 6 months after receiving the treatment for exudative AND. The eyes of the treatment group received two drops of 0.15% isopropyl unoprostone (IU) three times a day for 54 weeks. Participants were examined before starting the study (baseline) and at 4, 8, 12, 24, 36, and 54 weeks to measure GA area, the change in GA, the GA enlargement rate and the logarithm of the minimum angle of resolution (logMAR) visual acuity. The placebo group eyes received the vehicle 3 times a day.
(§2) Two drops of the test drug or the placebo (vehicle) were administered at 5 minute intervals to the eyes three times a day, i.e. morning, afternoon, and night.
(§3) Study duration: 54 weeks.
(§4) The participants were examined to measure the following items at enrollment (baseline) and at 4, 8, 12, 24, 36 and 54 weeks.
Fundus autofluorescence images were obtained using BluePeak™ blue laser fundus autofluorescence (FAF) and confocal scanning laser ophthalmoscopy reflectance (OSLO). Hypofluorescent areas that reflect decreased autofluorescence were defined as GA areas. In detail, digital images obtained as above were calibrated and analyzed using RegionFinder™ software (version 2.4, Heidelberg Engineering, Germany) to define and quantify GA areas. Obtaining the fundus autofluorescence images, analyzing the obtained images and defining GA areas were performed according to the manuals of the equipment and software.
At each measurement time, the GA size, the change in GA area from the baseline and the GA enlargement rate from the baseline were determined.

A short description of test [2]: Clinical study: logMAR visual acuity. The test is classed as in vivo, human. Conditions: U group. The method, then: as §1, §2, §3, §4
Visual acuity was examined and the obtained value was converted the logarithm of the minimum angle of resolution (LogMar) to give logMar visual acuity.

The structures appear in SMILES notation.

For `CCCCCCCC(=O)CC[C@@H]1[C@@H](C/C=C\CCCC(=O)OC(C)C)[C@@H](O)C[C@H]1O` [isopropyl unoprostone, 13,14-dihydro-15-keto-20-ethyl F2α isopropyl ester], the “mean change in GA area at week 54” value in test [1] (U group (24 eyes), 0.15% eye drops two drops three times a day, 54 weeks, change from baseline (baseline 2.71±2.03 mm^2), p<0.001 vs placebo) came to 0.44±0.39 mm^2. Further, the “enlargement of GA (conclusion)” value in test [1] (eye drops, 54 weeks, vs placebo) is “could suppress the enlargement of GA”. Also, the “change in geographic atrophy (GA) area (conclusion)” value in test [1] (patients who developed GA after treatment for exudative AMD, eye drops) was “statistically significant suppression”. For the same molecule, in test [1] (representative U group case, person with typical AMD, left eye, 0.15% eye drops, two drops three times a day, vs baseline), the “GA enlargement rate at 54 week” value is given as 118%. In addition, in test [1] (throughout the study), the “GA area, difference between U and P groups” value was “no statistically significant difference”. Further, the “logMAR visual acuity, trend over time” value in test [2] (over the study, no statistically significant difference over the baseline) is given as “tended to improve over time”. In addition, the “logMAR visual acuity at week 4” value in test [2] (week 4, baseline 0.39±0.39, p=0.62 vs P group) was 0.33±0.34. Also, the “logMAR visual acuity at week 54” value in test [2] (week 54, baseline 0.39±0.39, p=0.27 vs P group) was 0.37±0.34.
